Test results taken from patent US8106019B2, “CHEC-7 a novel sPLA2 inhibitor” (Philadelphia Health & Education Corporation, priority 2002, dated 2012).

Key:
plasma sPLA2 = conditions: LPS 4 mg/kg s.c.; peptide 0.4 mg/kg s.c. 60 min later
human plasma PLA2 = conditions: 25 nM peptide
PLA2 = conditions: cited from earlier work

In the case of CAHAQAESC, the “survival of neural cells” value (neural cells) is reported as “promotes survival of neural cells”.
With CHEASQC [CHEC-7] the “LPS-induced increases in sPLA2 activity in plasma” value (plasma sPLA2) was “effective in attenuating”, the “effect on LPS-induced plasma sPLA2 compared with CHEC-9” value (plasma sPLA2) was “greater and more sustained effect” and the “dependence of inhibition on substrate concentration” value (human plasma PLA2) was “less effective at the lowest substrate concentrations”. The “ex vivo inhibition of human plasma PLA2” value (human plasma PLA2; 25% pooled ALS plasma, PED6 substrate) was “inhibition”.
In the case of PMSF, the PLA2 activity (PLA2) is listed as “inhibits PLA2 activity”.
